From patent US20200170968A1 (priority 2014, published 2020)

Legend:
[1] = tested on: HIV infected PBMCs; assay: Cell viability of HIV infected PBMCs; format: cell-based; settings: varying concentrations of NACA
Protocol: (§1) Peripheral blood mononuclear cells (PBMC) were acutely infected with HIV-1 and stimulated with NACA. Cell viability was measured in HIV infected PBMCs with varying concentrations of NACA.

[2] = tested on: CEM cells; assay: Cytostatic activity assay (cell proliferation, Coulter counter); format: cell-based; settings: Homo sapiens, CCRF-CEM, 72 h, 50% inhibitory concentration of cell proliferation
Protocol: The cytostatic activity assay was performed in 96-well microliter plates. 5-7.5×10^4 cells and a given amount of the test compound were added to each well. The cells were allowed to proliferate for 72 h at 37° C. is a humidified CO2-controlled atmosphere. At the end of the incubation period, the cells were counted in a Coulter counter. The IC50 (half maximal inhibitory concentration) was defined as the concentration of the compound that inhibited cell proliferation by 50%.

[3] = tested on: HIV-2 (ROD); assay: Inhibition of HIV-2 replication in CEM cells (giant cell / syncytia formation); format: cell-based; settings: for EC50: concentration required to protect CEM cells against the cytopathogenicity of HIV by 50%, HIV-2 (ROD)
Protocol: (§2) CEM cells were suspended in fresh culture medium and infected with HIV-1 (IIIB) or HIV-2 (ROD) at 100 CCID50 per ml of cell suspension. 100 μl of the infected cell suspension were transferred to microplate wells, mixed with 100 μl of the appropriate dilutions of compounds, and further incubated at 37° C. After 4 days, giant cell formation was recorded microscopically and the number of giant cells was estimated as percentage of the number of giant cells present in the non-treated virus-infected cell cultures.

[4] = target: T1, viral RT (Human immunodeficiency virus type 1 group M subtype B, UniProt P04585); assay: Reverse transcriptase (RT) inhibition, Lenti RT Activity kit; format: biochemical, HIV; settings: 25 μM
T1 construct: endogenous in cells; host or cells: viral sample (virus-containing supernatant; probably from PMA-induced ACH-2 cells, inferred)
Protocol: The ability of the compounds to inhibit the activity of viral RT was determined by a Lenti RT Activity kit (Cavidi, Uppsala, Sweden) according to the manufacturer's instructions (protocol A): A poly-A plate was incubated with the reaction buffer for up to 1 h at 33° C. Afterwards, the viral sample together with NACA, an inhibition control (nevirapin) or a vehicle control (DMSO) were added and incubated overnight at 33° C. The plate was washed, exposed to the tracer for 90 min at 33° C. and washed again, before the substrate was added. The plate was incubated in the dark and subsequently read at 405 nm in a Multiskan RC (Labsystem).
For the data shown in FIG. 13A, a poly-A plate was incubated with the reaction buffer and subsequently, the viral sample (1:500 dilution) together with the NACA, nevirapin (inhibition control) or DMSO (vehicle control) was added and incubated overnight. The plate was exposed to the tracer and the substrate was added. The plate was incubated in the dark and read at 405 nm. The value for the vector control (DMSO) was set to 100% in each individual repeat and all other values were normalized to this reference value. The data shown in FIG. 13A are means of three independent experiments; the error bars represent the SEM. P-values are indicated if significant (*: p<0.05; **: p<0.01; ***: p<0.001).

[5] = tested on: viral integration in TZM-b1 cells; assay: Infectivity assay in TZM-b1 cells (luciferase; viral integration); format: cell-based, HIV-1; settings: 10 mM; 40 h
Protocol: 1×10^5 TZM-b1 cells were infected with diluted virus suspension (see 2.3 Virus expression) in a total of 0.2 ml DMEM medium in the presence of NACA, an inhibition control (nevirapin) or a vehicle control (DMSO). After 40 h at 37° C., the cells were assayed in a Luminoskan Ascent (Thermo Labsystems) for luciferase activity using the OneGlo luciferase assay system (Promega).
To determine additional targets of NACA inhibition within early stage processes of viral integration (viral entry to integration into the host genome), an infectivity assay was performed. TZM-b1 cells contain a luciferase gene that is under control of the HIV-1 promoter. Upon viral entry, transcription and integration into the host genome, luciferase is expressed and can convert the added substrate to the fluorescent product. The amount of measured product is quantitatively correlated to the amount of integrated virus in the test culture.
For the data in FIG. 14, TZM-b1 cells were infected with a diluted virus suspension in a total of 0.2 ml DMEM medium in the presence of the 25 μM or 10 mM NACA, an inhibition control (nevirapin) or a vehicle control (DMSO). Additionally, one well was treated with medium only instead of the virus dilution (no virus, negative control). After 40 h, the cells were assayed for luciferase activity. […] P-values were calculated between the vehicle control and the individual treatments. […]

[6] = tested on: HIV particles; assay: Infectivity of viral particles produced in the presence of NACA (TZM-b1 luciferase); format: cell-based
Protocol: (§3) To measure the infectivity of particles produced in the presence of the compounds, ACH-2 cells (1×10^6 cells/ml) were cultured with 100 nM PMA in the presence of the indicated amount of NACA or DMSO (negative control). After 3 days, the p24 content of the clarified supernatant (see 2.3 Virus expression) was measured. The supernatant was used for an infectivity test (see 2.4 Infectivity test) without the addition of any compound to the wells. The final dilution of the viral supernatant in the infectivity test was 1:100. A control experiment was performed, in which virus particles produced without the addition of NACA, were used for the infectivity test.
For the data in FIG. 15B, the clarified supernatant was further used for an infectivity test without the addition of any compound to the wells. The NACA amount stated in the graph refers to the amount in which the HIV producing cells were grown. TZM-b1 cells were infected with the diluted virus suspensions in a total of 0.2 ml DMEM (total dilution of virus supernatant: 1:100). After 40 h, the cells were assayed for luciferase activity. Additionally, a control experiment was performed, in which virus particles produced in the control set up, were used for the infectivity test. The same amount of NACA that could have been carried over with the virus containing supernatant in the original experiment was added to the infectivity test (final concentration: 1/100 of the indicated amount in the viral growth culture). The value for the control was set to 100% in each individual repeat and all other values were normalised these reference values. The data are means of three independent experiments; the error bars represent the SEM. P-values were calculated between the vehicle control and the individual treatments. P-values are indicated if significant (*: p<0.05; **: p<0.01; ***:p<0.001).

[7] = target: T2, recombinant HIV-1 protease (Human immunodeficiency virus type 1 group M subtype B, UniProt P04585); assay: Protease inhibition, SensoLyte HIV-1 protease assay kit; format: biochemical
T2 construct: Recombinant HIV-1 protease was purchased from AnaSpec Inc; purchased AnaSpec Inc
Protocol: The ability of NACA to inhibit the activity of recombinant HIV-1 protease was determined by a SensoLyte […] HIV-1 protease assay kit (AnaSpec Inc.) according to manufacturer's instructions: The compounds and the HIV-1 protease were added to a dark-bottom 96 well plate and the following controls were included: positive control (without NACA), inhibition control (pepstatin A), vehicle control (DMSO), NACA controls (to test for autofluorescence) and substrate control (assay buffer only). The plate as well as the HIV-1 protease substrate solution were incubated 15 minutes at 37° C. and 50 μl protease substrate was added to all wells. The fluorescence was measured at Ex/Em=490 nm/520 nm with a Varioskan Flash (Thermo Electron Corporation).
For the data shown in FIG. 13B, the HIV-1 protease together with NACA, a positive control (pepstatin A) or DMSO (vehicle control) were added to a dark-bottom 96 well plate. The plate as was incubated and protease substrate was added to all wells. The fluorescence was measured at Ex/Em=490 nm/520 nm. The value for the vector control (DMSO) was set to 100% in each individual repeat and all other values were normalized to this reference value. The data are means of three independent experiments; the error bars represent the SEM. P-values are indicated if significant (*: p<0.05; **: p<0.01; ***: p<0.001).

[8] = tested on: HIV-1; assay: HIV replication in acutely infected PBMC / lymphocytes; format: cell-based
Protocol: In some embodiments, the present invention relates to a method for inhibiting HIV replication. Data is attached reporting the results of an HIV study in lymphocytes with 100% block of replication at 20 mM concentration.
as §1

[9] = tested on: p24 in ACH-2 cells; assay: Production of viral particles (p24) in PMA-stimulated ACH-2 cells; format: cell-based, HIV; settings: ACH-2 cells with PMA, 3 days, indicated amounts of NACA
Protocol: ACH-2 cells (1×10^6 cells/ml) were cultured with 100 nM PMA. After three days the cell culture supernatant was collected, cleared by centrifugation at 300×g for 10 min and passed through a 0.45 μm filter. p24 content was measured in an Architect i2000SR (Abbott Laboratories, Ill., USA) as a measurement for virus content and supernatant was either used directly or frozen at −80° C. for later usage.
as §3
For the data in FIG. 15A, ACH-2 cells were cultured with […] in the presence of the indicated amount of NACA, DMSO (vector control=0 mM NACA) or no additive (control). After 3 days, the supernatant was clarified and the amount of p24 was measured by ELISA. […] P-values were calculated between the vehicle control and the individual treatments. […]

[10] = tested on: HIV-1 (IIIB); assay: Inhibition of HIV-1 replication in CEM cells (giant cell / syncytia formation); format: cell-based; settings: for EC50: concentration required to protect CEM cells against the cytopathogenicity of HIV by 50%, HIV-1 (IIIB)
Protocol: as §2

[11] = tested on: Chronically HIV-infected U1 cells (monocytes); assay: Reverse transcriptase (RT) activity as readout of virion production in chronically HIV-infected U1 cells; format: cell-based
[12] = tested on: CEM cells; assay: Viability test (trypan blue); format: cell-based, Human; settings: concentrations up to 10 mM
Protocol: CEM cells (3×10^5 cells/ml) were seeded and grown in the presence or absence of indicated concentrations of NACA. The medium was replaced and added new NACA after two days. After 48 and 96 hours, respectively, aliquots of the cells were harvested and combined with trypan blue dye before analyzed microscopically on a hemocytometer counting chamber. Blue cells were counted as nonviable and to estimate the amount of viable cells the amount of live cells was compared to the total amount of cells.

[13] = tested on: U1 cells; assay: U1 cell viability and proliferation ([3H]-thymidine incorporation); format: cell-based; settings: HIV-infected U1 cells
Protocol: Chronically HIV-infected U1 cells (monocytes) were stimulated for 6 hours in the presence of NACA. Cytokines (IL-6, […]) or PMA were added and maintained in the cell cultures for 6 days, collecting supernatants daily. Cell viability and proliferation were checked by optical microscopy, and [3H]-thymidine incorporation, and calcein AM assay. Reverse transcriptase-polymerase chain reaction (RT-PCR) and reverse transcriptase (RT) activity assay as readout of virion production.

**Q.** For `CC(=O)N[C@@H](CS)C(N)=O`, which cell viability [1] is on record?
**A.** did not affect cell viability

**Q.** And the IC50 [2]?
**A.** ~564 µM

**Q.** And the “Ratio IC50/EC50 (CEM) HIV-2” value ([3]; CEM cells)?
**A.** 2

**Q.** And the EC50 ([3]; Human immunodeficiency virus 2, CCRF-CEM)?
**A.** ~230 µM

**Q.** What about the EC50 [3] of the same compound?
**A.** 234 µM

**Q.** And the “effect on viral RT activity” value [4]?
**A.** no effect

**Q.** And the “effect on viral integration” value [5]?
**A.** more predominant effect

**Q.** What about the “effect on infectivity when NACA was added after the production of the viral particles (NACA added)” value ([6]; final concentration 1/100 of the indicated amount) of the same compound?
**A.** not visible

**Q.** And the “infectivity of the particles produced in the presence of NACA (NACA grown)” value ([6]; higher concentrations (5 mM to 10 mM))?
**A.** decreased significantly

**Q.** And the “infectivity of the particles produced in the presence of NACA (NACA grown)” value ([6]; low concentrations (0 mM to 1 mM))?
**A.** auxiliary effect

**Q.** What about the “effect on viral protease activity” value ([7]; 25 μM) of the same compound?
**A.** no effect

**Q.** What about the “effect on protease activity” value ([7]; 10 mM) of the same compound?
**A.** significant effect

**Q.** And the “effect on HIV replication” value ([8]; HIV infected PBMCs)?
**A.** inhibitor effect

**Q.** And the HIV replication inhibited ([8]; HIV infected PBMCs, concentrations of 10 mM and above)?
**A.** ~100%

**Q.** And the block of replication ([8]; lymphocytes, 20 mM concentration)?
**A.** 100%

**Q.** What about the “amount of p24” value [9] of the same compound?
**A.** not affected

**Q.** What about the “Ratio IC50/EC50 (CEM) HIV-1” value ([10]; CEM cells) of the same compound?
**A.** 3

**Q.** And the EC50 ([10]; Human immunodeficiency virus 1, IIIB, CCRF-CEM)?
**A.** ~230 µM

**Q.** What about the EC50 [10] of the same compound?
**A.** 224 ± 86 µM

**Q.** And the reverse transcriptase activity ([11]; U1 cells activated with 1 ng/mL TNF-α or 10 ng/mL IL-6)?
**A.** significant reduction

**Q.** And the “concentration effective in reducing HIV replication in activated U1 cells (RT activity)” value ([11]; U1 cells activated with 1 ng/mL TNT-α, 10 ng/mL IL-6 or 10 nM PMA)?
**A.** 1 to 10 µM

**Q.** And the “relative amounts of reverse transcriptase activity” value ([11]; U1 cells, between days 3 and 5)?
**A.** did not alter

**Q.** And the “concentration effective in reducing HIV replication in activated U1 cells” value ([11]; activated U1 cells)?
**A.** 10 to 333 µM

**Q.** And the CEM cells alive [12]?
**A.** more than 99%

**Q.** And the “U1 cell viability or proliferation as measured by [3H]-thymidine incorporation” value [13]?
**A.** did not have a large effect
